Measured values: patent publication US20250189546A1, “METHODS FOR ANALYZING DRUG MOLECULES IN MAMMALIAN TISSUES” (The Scripps Research Institute, priority 2022, published 2025)
Entries after “also recorded” stand apart in the source; their conditions may differ. Where two headings read alike, the source gives them in different places.

Experiments:
FAAH [1] = target: T1, FAAH (Mus musculus, UniProt O08914); assay: Competitive CATCH: parental PF7845 followed by PF7845-yne probe; type: in vivo
T1 construct: from tissue; host or cells: mouse brain (C57BL6J wild type)
T1 sequence (O08914 1-579): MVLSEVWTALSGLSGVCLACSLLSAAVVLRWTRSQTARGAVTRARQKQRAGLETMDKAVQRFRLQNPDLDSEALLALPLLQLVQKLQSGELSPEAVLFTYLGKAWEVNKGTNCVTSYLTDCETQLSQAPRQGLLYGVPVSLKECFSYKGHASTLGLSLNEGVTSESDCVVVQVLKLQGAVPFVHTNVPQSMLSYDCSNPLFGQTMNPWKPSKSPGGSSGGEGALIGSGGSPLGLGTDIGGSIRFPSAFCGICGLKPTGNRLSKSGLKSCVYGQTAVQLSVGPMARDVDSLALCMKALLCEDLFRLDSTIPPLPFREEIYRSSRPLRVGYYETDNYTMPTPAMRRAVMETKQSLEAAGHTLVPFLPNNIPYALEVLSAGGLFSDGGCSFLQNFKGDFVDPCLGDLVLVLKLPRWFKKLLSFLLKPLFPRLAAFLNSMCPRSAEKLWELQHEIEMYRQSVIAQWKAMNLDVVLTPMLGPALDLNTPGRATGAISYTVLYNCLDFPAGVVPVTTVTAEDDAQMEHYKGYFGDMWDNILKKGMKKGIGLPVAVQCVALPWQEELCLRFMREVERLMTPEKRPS
Excerpt: After establishing CATCH's specificity, scalability, compatibility, and resolution, finally, the inventors tested if CATCH can be used to quantitatively resolve dose-dependent target engagement after in vivo drug administration. […] In this competitive CATCH approach, animals are first treated with a dose range of the parental drugs, followed by a single high dose of the alkyne probes. The dose-dependent target engagement by the parental drug can be recorded based on the competitive blockade of signal in an anatomically specific manner (FIG. 8, A).
The inventors treated mice with 0.01-1 mg/kg of parental PF7845 followed by 1 mg/kg PF7845-yne probe to readout the dose-dependent brain targets of PF7845 by competitive CATCH. […] Conversely, the inventors adopted a direct approach to visualize dose-dependent alkyne drug PK properties (FIG. 8, C).
Sample collection: Inhibitors were administered to mice in a vehicle of 10% DMSO, 2% Tween-80 in saline for intraperitoneal (i.p.) injections. After drug injection at designated dose and time, mice were heavily anesthetized with isoflurane and then transcardially perfused with ice cold PBS followed by ice cold 4% PFA in PBS with sucrose. Mouse brains or other peripheral tissues were then dissected out and post fixed in 4% PFA overnight at 4° C. Tissues were washed with PBS, embedded in 2% agarose and sectioned as 100-micron or 500-micron tissue sections by vibratome (Leica VT1000S). Tissue sections were stored in PBS with 0.02% sodium azide at 4° C. for further processing.
(§1) CATCH labeling: For 100-micron sections labeling, the full CATCH reaction buffer contains: 5 μM AF647-picolyl azide, 150 μM CuSO4, 300 μM BTTP, 2.5 mM sodium ascorbate, and 10% DMSO in PBS. Tissue sections were incubated in click incubation buffer (without sodium ascorbate) overnight at RT. Tissues were then transferred to newly prepared incubation buffer and 100 mM freshly prepared sodium ascorbate was subsequently added to initiate the reaction. After 1 hour at RT in the dark with minor agitation, the reaction was quenched by addition of 4 mM EDTA in PBS (pH=8.0) and samples were washed 3×10 min with PBST. After removing click reaction cocktail, samples were stained by DAPI (1:3000 dilution in PBS from 10 μM stock) for 15 min at RT and would be ready for RI matching and imaging. They could also undergo further staining for cell type registration. For 500-micron sections, 300 μM CuSO4 and 600 μM BTTP were used for incubation and reaction. To achieve full labeling, tissues were incubated at 37° C. for 2 days, and underwent 4 rounds of 1 h click reaction at RT.

[2] = humans, cited from earlier work
[3] = test system: monoacylglycerol lipase (MAGL); assay: CATCH subcellular compartment imaging in hippocampus with synapsin and MAP2 immunostaining; type: in vivo, mouse
Excerpt: Because MAGL is restricted in localization to presynaptic axonal terminals, whereas FAAH is expressed in neuronal soma, the inventors sought to determine whether CATCH could detect on-and off-target MJN110-yne binding across subcellular compartments. The inventors focused on the well-characterized CA3 to CA1 projection in the hippocampus as it allowed us to observe both axon terminals and soma in the same field of view.
as §1
Immunostaining: Samples were incubated with primary antibodies in PBST overnight at 4° C. unless otherwise noted. Samples were then washed with PBST, 3×30 min, RT and transferred to secondary antibodies diluted in PBST. Samples were incubated with secondary antibodies overnight, RT and washed with PBST 3×30 min. For antibody elution, imaged slides were dismounted, and tissues were washed by 8% PBS-SDS (pH=7.0) at 60° C. for 8 hours. Samples were then washed by PBST 3×10 min at RT to remove residual SDS and could undergo the next round of staining.
Subcellular compartment intensity analysis: For MJN110-yne characterization, images were acquired at 5 μm from the tissue surface where the highest immunostaining signal can be observed. Different cellular compartments were identified by applying a threshold in immunostaining signal and mean drug labeling intensity was measured in the selected threshold region. Three random squares were drawn in nucleus in different cells and their average intensity was used as background. The recorded intensity value in soma or axonal terminal was then subtracted by the intensity in the nucleus for background adjustment. Data was then normalized to the average intensity of the control group as indicated in each figure legends.

MAGL = target: T2, MAGL (Mus musculus, UniProt O35678); assay: Gel-based CC-ABPP of whole brain lysates; type: in vivo; conditions: 1 mg/kg
T2 construct: from tissue; host or cells: mouse brain hemisphere, 100,000 g membrane pellet
T2 sequence (O35678 1-303): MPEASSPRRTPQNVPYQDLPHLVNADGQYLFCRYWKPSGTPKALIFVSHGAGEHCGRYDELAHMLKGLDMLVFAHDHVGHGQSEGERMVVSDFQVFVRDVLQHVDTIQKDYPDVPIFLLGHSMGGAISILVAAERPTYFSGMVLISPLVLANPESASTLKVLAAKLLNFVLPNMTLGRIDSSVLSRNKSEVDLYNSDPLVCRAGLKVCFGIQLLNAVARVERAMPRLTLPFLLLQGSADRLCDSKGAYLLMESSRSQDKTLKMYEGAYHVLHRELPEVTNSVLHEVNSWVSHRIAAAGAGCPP
Protocol: (§2) For in gel ABPP analysis, after anesthetizing, mice were decapitated and target tissues were harvested and flash frozen in liquid N2 without perfusion or fixation. Each mouse hemisphere and liver were washed with ice cold PBS on ice (2×1 mL) to remove excessive blood. Tissues were homogenized in 1 mL PBS and sonicated for 10 min in ice cold water. Tissues were centrifuged (1000 g, 10 min, 4° C.) and supernatant was then centrifuged at high speed (100,000 g, 45 min, 4° C.). Supernatant was discarded and remaining pellets were gently washed with ice cold PBS (2×0.5 mL). Pellets were resuspended by gentle pipetting and protein concentrations were quantified by the Bio-Rad DC Protein Assay Kit. Proteomes were then diluted to […] for immediate use or aliquoted and stored at −80° C.
(§3) In gel click chemistry ABPP assay: Click chemistry labeling of alkyne inhibitors was performed as previously reported (Niphakis et al., ACS Chem Neurosci 3, 418-426, 2012). Click reaction buffer was prepared by mixing CuSO4 (50 mM in H2O, 1.0 μL/reaction), TBTA (1.7 mM in 1:4 DMSO/t-BuOH, 3.0 μL/reaction), freshly prepared TCEP (50 mM in H2O, 1.0 μL/reaction) and 5-TAMRA azide (1.25 mM in DMSO, 1.0 μL/reaction). For every 50 μL tissue proteome ([…]), 6 μL click buffer was added. Reaction mixture was gently mixed and kept in a dark drawer for 1 hour at RT. […]

FAAH [4] = target: T1, FAAH; assay: Gel-based CC-ABPP of whole brain lysates; type: in vivo; conditions: 20 mg/kg
Protocol: as §2, §3

## O=C(Nc1cccnn1)N1CCC(=Cc2cccc(Oc3ccc(C(F)(F)F)cn3)c2)CC1 [PF7845]
FAAH [1]; 0.01 mg/kg PF7845, then 1 mg/kg PF7845-yne
  FAAH target binding by competitive CATCH: no target binding was detected
FAAH [1]; 0.02 mg/kg PF7845, then PF7845-yne 1 mg/kg, 1 h, i.p.
  FAAH inhibition by competitive CATCH, cortex vs hippocampus: Cortical PF7845-yne is fully blocked; also recorded: fully inhibited in the cortex but not in the hippocampus
FAAH [1]; 0.05 mg/kg PF7845, then 1 mg/kg PF7845-yne
  FAAH inhibition by competitive CATCH: full FAAH inhibition was achieved
FAAH [1]; 24 hours after PF7845 administration
  Duration of FAAH blockage to competitive probe binding: sustained FAAH blockage to competitive probe binding
FAAH [1]; pharmacological blocking experiment
  Effect of pre-treatment on PF7845-yne-generated CATCH signals across the brain: completely abolished
[2]
  Clinical safety / toxicity: considered a safe FAAH inhibitor
[3]; PF7845 pre-treatment, then MJN110-yne, hippocampus
  Effect of pre-treatment on MJN110-yne binding in soma and axon terminals: significantly suppressed MJN110-yne binding in the soma, but not axon terminals

## C#Cc1ccc(C(c2ccc(Cl)cc2)N2CCN(C(=O)ON3C(=O)CCC3=O)CC2)cc1 (stereo not drawn) [MJN110-yne]
MAGL
  Target engagement in gel-based CC-ABPP: selectively engaged MAGL
FAAH [4]
  Off-target engagement in gel-based CC-ABPP: substantial off-target engagement of FAAH
[3]; 1 mg/kg, hippocampus CA1
  Subcellular localisation of CATCH signal, low dose: binding in presynaptic terminals; also recorded: restricted to synapsin positive axon terminals
[3]; 20 mg/kg vs 1 mg/kg
  Overall fluorescence intensity in hippocampus: overall higher fluorescence intensity
[3]; 20 mg/kg, hippocampus
  Subcellular localisation of CATCH signal, high dose: spread to the neuronal soma
[3]; pretreatment with parent MJN110 and MAGL−/− mice
  Specificity of CATCH signals: confirmed the specificity

## CN(C(=O)n1cnc(-c2ccc[n+]([O-])c2)c1)C1CCCCC1 [BIA-10-2474]
[2]
  Clinical safety / toxicity: Unanticipated toxicity
[2]; listed as BIA 10-2474
  Clinical safety / toxicity: associated with clinical neurological toxicities
